According to patent US20230348424A1, “HETEROCYCLIC COMPOUNDS AND METHODS OF USE” (Schrödinger, Inc., priority 2022, published 2023):

Molecular target: SOS1:KRAS (G12C) interaction (Homo sapiens (Human), UniProt Q07889)
Test: SOS1 KRas(G12C) FRET Assay
Assay type: binding
Conditions: 0.5 nM His10-SOS1 (res. 564-1049), 2.5 nM GST-KRAS G12C (res. 1-169), 2 hrs at RT
Method in brief: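 GST-KRAS G12C (res. 1-169) at 2.5 nM and His10-SOS1 (res. 564-1049) at 0.5 nM, final, in PBS with 0.1% BSA, 5 mM MgCl2, 100 mM KF, 5 mM DTT and 0.5% DMSO. After 2 h at RT, FRET read at 665/615 nm and normalized to DMSO and no-SOS1 controls. IC50 by non-linear regression.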

SOS1:KRAS (G12C) interaction, sequence (Q07889 564-1049, stated change not applied): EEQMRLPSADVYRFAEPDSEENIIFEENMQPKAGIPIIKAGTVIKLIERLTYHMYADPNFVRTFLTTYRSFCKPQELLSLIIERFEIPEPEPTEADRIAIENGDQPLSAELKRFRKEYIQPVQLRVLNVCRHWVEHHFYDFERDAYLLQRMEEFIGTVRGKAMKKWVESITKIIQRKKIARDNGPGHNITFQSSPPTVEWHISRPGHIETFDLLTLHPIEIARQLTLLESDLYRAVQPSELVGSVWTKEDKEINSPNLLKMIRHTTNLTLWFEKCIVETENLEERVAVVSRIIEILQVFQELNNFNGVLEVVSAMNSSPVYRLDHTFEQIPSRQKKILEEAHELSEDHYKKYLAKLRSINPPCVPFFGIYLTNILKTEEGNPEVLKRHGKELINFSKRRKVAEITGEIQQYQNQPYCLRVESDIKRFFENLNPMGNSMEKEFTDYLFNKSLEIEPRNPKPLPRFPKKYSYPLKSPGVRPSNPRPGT

| Compound | IC50 |
| --- | --- |
| C[C@@H](NC(=O)c1cn([C@]23COC[C@H]2C3)c(=O)cc1N[C@H]1[C@@H]2CN(C)C[C@@H]21)c1cccc(C(F)F)c1F [Example 287, 1-((1S,5S)-3-oxabicyclo[3.1.0]hexan-1-yl)-N-((R)-1-(3-(difluoromethyl)-2-fluorophenyl)ethyl)-4-(((1R,5S,6s)-3-methyl-3-azabicyclo[3.1.0]hexan-6-yl)amino)-6-oxo-1,6-dihydropyridine-3-carboxamide] | 9.9 nM |
| C[C@@H](NC(=O)c1cn(C23CC(C2)C3)c(=O)cc1N[C@H]1[C@@H]2C[C@H]1CN(C)C2)c1cccc(C(F)F)c1F [Example 209, 1-(bicyclo[1.1.1]pentan-1-yl)-N-((R)-1-(3-(difluoromethyl)-2-fluorophenyl)ethyl)-4-(((1R,5S,6r)-3-methyl-3-azabicyclo[3.1.1]heptan-6-yl)amino)-6-oxo-1,6-dihydropyridine-3-carboxamide] | 63.4 nM |
| C[C@@H](NC(=O)c1cn([C@@H]2C[C@@H]2C)c(=O)cc1N[C@H]1[C@@H]2CN(C)C[C@@H]21)c1cccc(C(F)F)c1F (single isomer, unassigned) [Example 274] | 10.6 nM |
| C[C@@H](NC(=O)c1cn(C23CC(C2)C3)c(=O)cc1N[C@H]1[C@@H]2CN(C)C[C@@H]21)c1cccc(C(F)(F)F)c1 [Example 160, 1-(bicyclo[1.1.1]pentan-1-yl)-4-(((1R,5S,6s)-3-methyl-3-azabicyclo[3.1.0]hexan-6-yl)amino)-6-oxo-N-((R)-1-(3-(trifluoromethyl)phenyl)ethyl)-1,6-dihydropyridine-3-carboxamide] | 21.4 nM |
| C[C@@H](NC(=O)c1cn([C@@H]2C[C@H]2C2CC2)c(=O)cc1N[C@H]1[C@@H]2CN(C)C[C@@H]21)c1cccc(C(F)F)c1F [Example 71, 1-((1S,2R)-[1,1′-bi(cyclopropan)]-2-yl)-N-((R)-1-(3-(difluoromethyl)-2-fluorophenyl)ethyl)-4-(((1R5S,6s)-3-methyl-3-azabicyclo[3.1.0]hexan-6-yl)amino)-6-oxo-1,6-dihydropyridine-3-carboxamide] | 21.9 nM |
| C[C@@H](NC(=O)c1cn(C2(C(F)F)CC2)c(=O)cc1N[C@@H]1C[C@@H]2C[C@H]1CN2C)c1cccc(C(F)F)c1F (single isomer, unassigned) [Example 238] | 29.3 nM |
| C[C@@H](NC(=O)c1cn(C2(C(F)F)CC2)c(=O)cc1N[C@H]1[C@@H]2CC[C@H]1CN(C)C2)c1cccc(C(F)F)c1F (single isomer, unassigned) [Example 245] | 44.2 nM |
| CC(=O)N1CC[C@@](C)(n2cc(C(=O)N[C@H](C)c3cccc(C(F)F)c3F)c(NC3CCN(C)CC3)cc2=O)C1 (single isomer, unassigned) [Example 266] | 1.4 nM |
| C[C@@H](NC(=O)c1cn(C23CC(C2)C3)c(=O)cc1N[C@H]1[C@@H]2CN(C)C[C@@H]21)c1cccc(C(F)(F)F)c1F [Example 205, 1-(bicyclo[1.1.1]pentan-1-yl)-N-((R)-1-(2-fluoro-3-(trifluoromethyl)phenyl)ethyl)-4-(((1R,5S,6s)-3-methyl-3-azabicyclo[3.1.0]hexan-6-yl)amino)-6-oxo-1,6-dihydropyridine-3-carboxamide] | 26.6 nM |
| C[C@@H](NC(=O)c1cn(C23COC(C(F)F)(C2)C3)c(=O)cc1NC1[C@H]2CN(C)C[C@@H]12)c1cccc(C(F)F)c1F (stereo partly drawn) [Example 263, N-((R)-1-(3-(difluoromethyl)-2-fluorophenyl)ethyl)-1-(1-(difluoromethyl)-2-oxabicyclo[2.1.1]hexan-4-yl)-4-(((1R,5S,6s)-3-methyl-3-azabicyclo[3.1.0]hexan-6-yl)amino)-6-oxo-1,6-dihydropyridine-3-carboxamide] | 14.9 nM |
| C[C@@H](NC(=O)c1cn(C2(C(F)F)CC2)c(=O)cc1N[C@@H]1CN2CCC1(F)CC2)c1cccc(C(F)F)c1F [Example 187, N-((R)-1-(3-(difluoromethyl)-2-fluorophenyl)ethyl)-1-(1-(difluoromethyl)cyclopropyl)-4-(((R)-4-fluoroquinuclidin-3-yl)amino)-6-oxo-1,6-dihydropyridine-3-carboxamide] | 22.3 nM |
| CC(Nc1cc(=O)n(C2(C(F)F)CC2)cc1C(=O)N[C@H](C)c1cccc(C(F)F)c1F)C1(CO)CC1 (stereo partly drawn) [Example 191, N-((R)-1-(3-(difluoromethyl)-2-fluorophenyl)ethyl)-1-(1-(difluoromethyl)cyclopropyl)-4-((1-(1-(hydroxymethyl)cyclopropyl)ethyl)amino)-6-oxo-1,6-dihydropyridine-3-carboxamide] | 140 nM |
| C[C@@H](NC(=O)c1cn([C@]2(C)CCN(C(=O)C3(F)CC3)C2)c(=O)cc1NC1CCN(C)CC1)c1cccc(C(F)F)c1F [Example 269, N-((R)-1-(3-(difluoromethyl)-2-fluorophenyl)ethyl)-1-((R)-1-(1-fluorocyclopropane-1-carbonyl)-3-methylpyrrolidin-3-yl)-4-((1-methylpiperidin-4-yl)amino)-6-oxo-1,6-dihydropyridine-3-carboxamide] | 1.21 nM |
| C[C@@H](NC(=O)c1cn(C2(C)CC(F)(F)C2)c(=O)cc1N[C@H]1[C@@H]2CN(C)C[C@@H]21)c1cccc(C(F)F)c1F [Example 224, 1-(3,3-difluoro-1-methylcyclobutyl)-N-((R)-1-(3-(difluoromethyl)-2-fluorophenyl)ethyl)-4-(((1R,5S,6s)-3-methyl-3-azabicyclo[3.1.0]hexan-6-yl)amino)-6-oxo-1,6-dihydropyridine-3-carboxamide] | 46.8 nM |
| C[C@@H]1[C@@H](n2cc(C(=O)N[C@H](C)c3cccc(C(F)(F)F)c3F)c(N[C@H]3[C@@H]4CN(C)C[C@@H]43)cc2=O)C1(F)F (single isomer, unassigned) [Example 197] | 31.7 nM |
| C[C@@H](NC(=O)c1cn(C2(C(F)F)CC2)c(=O)cc1NC[C@@H]1CCCN1C)c1cccc(C(F)F)c1F [Example 188, N-((R)-1-(3-(difluoromethyl)-2-fluorophenyl)ethyl)-1-(1-(difluoromethyl)cyclopropyl)-4-((((S)-1-methylpyrrolidin-2-yl)methyl)amino)-6-oxo-1,6-dihydropyridine-3-carboxamide] | 41.3 nM |
| Cc1c([C@@H](C)NC(=O)c2cn(C3CCOCC3)c(=O)cc2N[C@H]2[C@@H]3C[C@H]2CN(C)C3)cccc1C(F)(F)F (single isomer, unassigned) [Example 23] | 47.1 nM |
| Cc1c([C@@H](C)NC(=O)c2cn(C3CCOCC3)c(=O)cc2NC2CCCn3cncc32)cccc1C(F)(F)F (stereo partly drawn) [Example 300, N-((R)-1-(2-methyl-3-(trifluoromethyl)phenyl)ethyl)-6-oxo-1-(tetrahydro-2H-pyran-4-yl)-4-((5,6,7,8-tetrahydroimidazo[1,5-a]pyridin-8-yl)amino)-1,6-dihydropyridine-3-carboxamide] | 20.8 nM |
| C[C@@H](NC(=O)c1cn([C@H]2C[C@H](C3CC3)C2)c(=O)cc1N[C@H]1[C@@H]2CN(C)C[C@@H]21)c1cccc(C(F)F)c1F (single isomer, unassigned) [Example 249] | 16.5 nM |
| CN1C[C@@H]2[C@H](C1)[C@H]2Nc1cc(=O)n(C2(C(F)F)CC2)cc1C(=O)N[C@H](c1cccc(C(F)F)c1F)C(F)F [Example 159, N-((R)-1-(3-(difluoromethyl)-2-fluorophenyl)-2,2-difluoroethyl)-1-(1-(difluoromethyl)cyclopropyl)-4-(((1R,5S,6s)-3-methyl-3-azabicyclo[3.1.0]hexan-6-yl)amino)-6-oxo-1,6-dihydropyridine-3-carboxamide] | 1060 nM |
